Results published in article PMC11881343, “Safety of ilunocitinib tablets (Zenrelia™) after once daily oral administration in dogs” (BMC Veterinary Research, 2025).

Legend:
healthy Beagle dogs = test: 6-month target animal safety study: clinical observations, physical, neurological and ophthalmoscopic examinations; conditions: for Skin discoloration, number of animals affected / Skin lesion w/discharge, number of animals affected / Skin lesion, number of animals affected / Skin scab paw, number of animals affected / Skin thickening (paws), number of animals affected / Swollen paws, number of animals affected: 8 dogs per group
Description: This was a randomized, controlled, blinded, 6-month study with a parallel design. Using a block randomization procedure stratified by sex, 20 males and 20 females were randomly allocated on study day − 3 to one of the following five groups (4 males and 4 females per group): Group 1: Untreated control (sham-dosed with 5 mL of tap water); Group 2: Ilunocitinib film-coated tablets at a target dose level of 0.8 mg/kg (1X); Group 3: Ilunocitinib film-coated tablets at a target dose level of 1.6 mg/kg (2X); Group 4: Ilunocitinib film-coated tablets at a target dose level of 2.4 mg/kg (3X) and Group 5: Ilunocitinib film-coated tablets at a target dose level of 4.0 mg/kg (5X). The experimental unit was the individual dog.
The dose levels were selected based on the maximum therapeutic dose (i.e. 0.8 mg/kg, 1X) and the requirement to test multiples of the maximum therapeutic dose, i.e. 2X, 3X and 5X the therapeutic dose. Doses for each individual animal were based on the most recent body weight. Commercial tablets of ilunocitinib, available in 4.8, 6.4, 8.5, and 15 mg strength, were dispensed. These tablets were combined appropriately to meet the individual’s precise dosage requirement, ensuring there was no underdosing. […] Approximately 5 mL of water was given after each administration and the mouth checked to ensure the tablets had been swallowed. Control animals were sham treated with 5 mL of tap water.
Animals were observed twice daily, at least 6 h apart, over the entire course of the study for morbidity, mortality and injury. Clinical examinations of each dog were performed before treatment administration and at approximately 2 and 5 h post treatment. Observations included, but were not limited to, evaluation of skin, fur, eyes, ears, nose, oral cavity, thorax, abdomen, external genitalia, limbs and feet, respiratory and circulatory signs, autonomic effects such as salivation, and nervous system effects including tremors, convulsions, reactivity to handling, and unusual behavior.
Body weights for all animals were recorded during the acclimation phase (study days − 12 and − 1) and then once weekly during the study. Food consumption (dry and wet food) was measured and recorded daily. […] Assessments including overall general condition and behavior, ocular inspection, integument, musculoskeletal, gastrointestinal, body temperature, cardiovascular and respiratory systems including auscultation-based assessment, reproductive, lymphatic, urinary and nervous systems.

dogs = system: dogs; set-up: method as in internal report; conditions: dogs maintained on concrete floors with corn cob bedding; ref internal report; cited from earlier work
[1] = tablets, dogs; no reference given; cited from earlier work
[2] = 1X (0.8 mg/kg oral once daily, 6 months)
[3] = 2X (1.6 mg/kg oral once daily, 6 months)
[4] = 3X (2.4 mg/kg oral once daily, 6 months)
[5] = 5X (4.0 mg/kg oral once daily, 6 months)

N#CCC1(n2cc(-c3ncnc4[nH]ccc34)cn2)CN(S(=O)(=O)C2CC2)C1 [ilunocitinib]
serious adverse effects during the course of the study (healthy Beagle dogs; 0.8 to 4.0 mg/kg once daily for 6 months): no serious adverse effects
Skin discoloration, number of animals affected (healthy Beagle dogs; [2]): 1
Skin lesion w/discharge, number of animals affected (healthy Beagle dogs; [2]): 1
Skin lesion, number of animals affected (healthy Beagle dogs; [2]): 4
Skin scab paw, number of animals affected (healthy Beagle dogs; [2]): 0
Skin thickening (paws), number of animals affected (healthy Beagle dogs; [2]): 0
Swollen paws, number of animals affected (healthy Beagle dogs; [2]): 1
interdigital furunculosis, or cysts, with or without discharge on one or more paws (healthy Beagle dogs; 1X to 5X): dose-dependent presence
Skin discoloration, number of animals affected (healthy Beagle dogs; [3]): 1
Skin lesion w/discharge, number of animals affected (healthy Beagle dogs; [3]): 3
Skin lesion, number of animals affected (healthy Beagle dogs; [3]): 5
Skin scab paw, number of animals affected (healthy Beagle dogs; [3]): 0
Skin thickening (paws), number of animals affected (healthy Beagle dogs; [3]): 1
Swollen paws, number of animals affected (healthy Beagle dogs; [3]): 5
Skin discoloration, number of animals affected (healthy Beagle dogs; [4]): 2
Skin lesion w/discharge, number of animals affected (healthy Beagle dogs; [4]): 3
Skin lesion, number of animals affected (healthy Beagle dogs; [4]): 6
Skin scab paw, number of animals affected (healthy Beagle dogs; [4]): 1
Skin thickening (paws), number of animals affected (healthy Beagle dogs; [4]): 1
Swollen paws, number of animals affected (healthy Beagle dogs; [4]): 6
Skin discoloration, number of animals affected (healthy Beagle dogs; [5]): 0
Skin lesion w/discharge, number of animals affected (healthy Beagle dogs; [5]): 4
Skin lesion, number of animals affected (healthy Beagle dogs; [5]): 8
Skin scab paw, number of animals affected (healthy Beagle dogs; [5]): 1
Skin thickening (paws), number of animals affected (healthy Beagle dogs; [5]): 0
Swollen paws, number of animals affected (healthy Beagle dogs; [5]): 3
ophthalmological or neurological findings associated with treatment (healthy Beagle dogs; all dose levels): No ophthalmological or neurological findings
serious adverse effects or mortality (healthy Beagle dogs; including at 5X overdose for 6 months): no serious adverse effects or mortality
tolerability (healthy Beagle dogs; therapeutic dose (0.8 mg/kg)): well-tolerated
interdigital cysts (IDC) (dogs): not observed
increase in oral bioavailability when given with food or after feeding [1]: ~20%
